Reference: BindingDB's records for doi:10.1021/jm00142a005 (1982)
Structures can show the parent of a compound that is named as a salt.

target: Thromboxane-A synthase (Oryctolagus cuniculus); assay: Inhibitory activity against rabbit thromboxane synthetase

IC50 [nM] | SMILES
90 | CC(C)(CCCCCCC(=O)O)n1ccnc1 [8-Imidazol-1-yl-8-methyl-nonanoic acid; hydrochloride]
70 | O=C(O)/C=C/CCCCCn1ccnc1 [8-Imidazol-1-yl-oct-2-enoic acid; hydrochloride]
16 | O=C(O)/C=C\CCCCCn1ccnc1 [8-Imidazol-1-yl-oct-2-enoic acid]
56 | O=C(O)CCCC/C=C\Cn1ccnc1 [8-Imidazol-1-yl-oct-6-enoic acid; hydrochloride]

The remaining lines, values behind:

SMILES | IC50 [nM]
O=C(O)C1(CCCCCCn2ccnc2)CCCCC1 [1-(6-Imidazol-1-yl-hexyl)-cyclohexanecarboxylic acid; hydrochloride] | 46
CC(CCCCCCn1ccnc1)C(=O)O (stereo not drawn) [8-Imidazol-1-yl-2-methyl-octanoic acid; hydrochloride] | 30
O=C(O)C(CCCCCCn1ccnc1)c1ccccc1 (stereo not drawn) [8-Imidazol-1-yl-2-phenyl-octanoic acid; hydrochloride] | 38
CC(C)(CCCCn1ccnc1)CCC(=O)O [8-Imidazol-1-yl-4,4-dimethyl-octanoic acid; hydrochloride] | 71
